The source of these data is PubChem BioAssay (NCI).

Each structure is given as a SMILES string.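 These data come from cells grown in 96-well plates and exposed to compound for 48 hours at five concentrations. The concentration for 50% growth inhibition is given as GI50. Definition used: TGI = concentration required for complete inhibition of growth.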

Test systems include DMS 114 small cell lung; DMS 273 small cell lung; KM20L2 colon; LXFL 529 NSCLC; M19-MEL melanoma; SNB-78 CNS; RXF-631 renal; MDA-N.
Holding throughout (assay): NCI-60 cell line screen, 48 h

Take `CN1c2ccccc2N(C(=O)c2ccc([N+](=O)[O-])cc2)C(CC(=O)O)c2cccn21` (centres undefined): the TGI in the experiment with DMS 114 small cell lung, in the experiment with DMS 273 small cell lung, with KM20L2 colon, in the experiment on LXFL 529 NSCLC, in the experiment on M19-MEL melanoma and in the experiment on SNB-78 CNS was above 100 µM throughout.

Take `Cn1c2c(c3ccccc31)CCN(CCCCN1CCCCC1)C2=O`: the TGI in the experiment with DMS 273 small cell lung, with KM20L2 colon, with LXFL 529 NSCLC, with M19-MEL melanoma, with RXF-631 renal and in the experiment with SNB-78 CNS was above 100 µM each time.

Turning to `O=C(/C=C/c1cc(Cl)cc(Cl)c1O)c1cccc(O)c1`, the TGI in the experiment with DMS 114 small cell lung is above 100 µM; in the experiment with DMS 273 small cell lung, above 100 µM; in the experiment on KM20L2 colon, above 100 µM; with LXFL 529 NSCLC, above 100 µM; with M19-MEL melanoma, 68.7 µM; with SNB-78 CNS, above 100 µM.

Take `COc1ccc2c(c1OC)C[C@@H]1c3c(cc4c(c3-2)OCO4)CCN1C`: the TGI with MDA-N is above 100 µM.

For `O=C(NCCCCCCCCCCCCNC(=O)c1cccc2ccccc12)c1cccc2ccccc12`, the TGI with DMS 114 small cell lung, with DMS 273 small cell lung, with KM20L2 colon, in the experiment with LXFL 529 NSCLC, in the experiment on M19-MEL melanoma and in the experiment on RXF-631 renal was above 100 µM each time. In the experiment with SNB-78 CNS, this molecule registered a TGI above 82.3 µM.

As for `Cc1c(Cl)cccc1NC(=O)C(=O)C(C(=O)c1ccccc1-c1ccccc1)C1OC(=O)c2ccccc21` (centres undefined), the TGI amounted to 43.5 µM with DMS 114 small cell lung; 77 µM in the experiment on DMS 273 small cell lung; 51.4 µM in the experiment on KM20L2 colon; 27.9 µM with LXFL 529 NSCLC; 34.8 µM in the experiment with M19-MEL melanoma; 71.6 µM in the experiment with RXF-631 renal. This molecule also displayed a TGI in the experiment with SNB-78 CNS above 100 µM.

Regarding `COC(=O)CCC(NC(=S)N/N=C(\C)c1cnc2ccccc2n1)C(=O)OC` (centres undefined), the TGI with DMS 273 small cell lung was above 100 µM; with KM20L2 colon, 46 µM; in the experiment on LXFL 529 NSCLC it was above 100 µM; in the experiment on RXF-631 renal it was above 100 µM; in the experiment with SNB-78 CNS it was above 100 µM.

Take `COc1cc(Nc2nc3cc(N)cc(N)c3nc2-c2ccccc2)cc(OC)c1OC`: in the experiment on MDA-N, the GI50 was 10.5 µM and the TGI stood at 31.3 µM.

In the case of `CN1C(=O)CCC1(O)C1C=CC=CC1` (centres undefined), the TGI in the experiment on DMS 114 small cell lung, in the experiment on DMS 273 small cell lung, in the experiment with KM20L2 colon, in the experiment on LXFL 529 NSCLC, with M19-MEL melanoma and with RXF-631 renal was above 100 µM each time. The molecule further gave a TGI in the experiment with SNB-78 CNS above 100 µM.

In the case of `COC(=O)C(C(=O)C(=O)Nc1c(C)cccc1C)c1cnc2ccccc2n1` (centres undefined), the TGI with DMS 114 small cell lung, with DMS 273 small cell lung, in the experiment with KM20L2 colon, with LXFL 529 NSCLC, in the experiment on RXF-631 renal and in the experiment on SNB-78 CNS was above 100 µM throughout.

As to `CN(C)C=Nc1ccn(CCO)c(=O)n1`, the TGI in the experiment on DMS 114 small cell lung, in the experiment with DMS 273 small cell lung, in the experiment on KM20L2 colon, in the experiment on LXFL 529 NSCLC, in the experiment with M19-MEL melanoma and in the experiment on RXF-631 renal was above 100 µM in each case. The TGI with SNB-78 CNS was above 100 µM.

Turning to `Cc1cc(NCCCCCCCCNc2cc(C)nc3cc(N)ccc23)c2ccc(N)cc2n1`, the TGI in the experiment with DMS 114 small cell lung is 30.8 µM; with DMS 273 small cell lung, 28.9 µM; in the experiment with KM20L2 colon, 48.8 µM; in the experiment on LXFL 529 NSCLC, 45.2 µM; in the experiment on M19-MEL melanoma, 45.3 µM.

For the molecule `CC(=O)OCC1OC(n2cc(F)c(=O)[nH]c2=O)C(NC(=O)N(CCCl)N=O)C(OC(C)=O)C1OC(C)=O` (centres undefined), the TGI with DMS 114 small cell lung, in the experiment with DMS 273 small cell lung, in the experiment with KM20L2 colon, with LXFL 529 NSCLC, in the experiment with M19-MEL melanoma and in the experiment with SNB-78 CNS was above 100 µM throughout.

In the case of `C/C(=C1/N=C(c2cc([N+](=O)[O-])ccc2Cl)N(c2cccc(C)c2)C1=O)c1cc2ccccc2oc1=O`, the TGI in the experiment on DMS 114 small cell lung, in the experiment on DMS 273 small cell lung, in the experiment on KM20L2 colon, in the experiment with LXFL 529 NSCLC, with M19-MEL melanoma and with RXF-631 renal was above 100 µM each time. In the experiment on SNB-78 CNS, this molecule displayed a TGI above 100 µM.

With `CC1=Nc2ccccc2S/C1=C(/C)NNS(=O)(=O)c1ccc(C)cc1`, the TGI in the experiment with DMS 114 small cell lung, in the experiment with DMS 273 small cell lung, in the experiment with KM20L2 colon, in the experiment with LXFL 529 NSCLC, in the experiment on M19-MEL melanoma and with RXF-631 renal was above 100 µM throughout. For the same molecule, in the experiment on SNB-78 CNS, the TGI was above 100 µM.

Consider `N.N.N.N.N.[Co+3].[I-].[N-]=[N+]=[N-]`, for which the GI50 with DMS 273 small cell lung, in the experiment on KM20L2 colon, in the experiment with LXFL 529 NSCLC and in the experiment on SNB-78 CNS was above 100 µM throughout. The TGI in the experiment on DMS 273 small cell lung, in the experiment on KM20L2 colon, in the experiment with LXFL 529 NSCLC and in the experiment on SNB-78 CNS was above 100 µM throughout.

As for `N#Cc1c(-c2ccc(Cl)c(Cl)c2)c(-c2ccc(Cl)c(Cl)c2)nn(CC(=O)O)c1=O`, the TGI is above 100 µM in the experiment on DMS 273 small cell lung; 56.8 µM with KM20L2 colon; above 100 µM in the experiment with LXFL 529 NSCLC; above 100 µM with M19-MEL melanoma; above 100 µM in the experiment with RXF-631 renal; above 100 µM in the experiment on SNB-78 CNS.

In the case of `CC(=O)O[C@H]1C(=O)[C@@]2(C)C(C(OC(=O)c3ccccc3)[C@]3(O)C[C@H](OC(=O)C(OC(=O)CCCC(=O)NCCCN(C)C)C(NC(=O)c4ccccc4)c4ccccc4)C(C)=C1C3(C)C)C1(OC(C)=O)COC1C[C@@H]2O` (some centres undefined), the TGI was below 0.01 µM with DMS 114 small cell lung; 0.553 µM with DMS 273 small cell lung; below 0.01 µM in the experiment with KM20L2 colon; 20.9 µM in the experiment with LXFL 529 NSCLC; 17.3 µM in the experiment with M19-MEL melanoma; below 0.01 µM in the experiment with MDA-N. Moreover, the TGI was above 100 µM in the experiment on RXF-631 renal and 96.8 µM with SNB-78 CNS.

Molecule `c1cc(NNc2cccc(-c3nn[nH]n3)c2)cc(-c2nn[nH]n2)c1` returned a TGI in the experiment on MDA-N above 100 µM.

With `CCOC(=O)C1Cc2c(cc3c4c(cccc24)N(C(C)=O)C3)N(C)C1` (centres undefined), in the experiment on MDA-N, the TGI is 3.29 µM.
